Results as given in patent US6683201B2, “Analine derivatives as OSC inhibitors” (Hoffmann-La Roche Inc., priority 2000, dated 2004).

CN(C)CCCCOc1ccc(N(C)S(=O)(=O)c2ccc(C(F)(F)F)cc2)cc1 [Example 14.1, N-[4-(4-Dimethylamino-butoxy)-phenyl]-N-methyl-4-trifluoromethyl-benzenesulfonamide]
melting point: 151 to 153 °C
